{"source": "patent US20200276181A1", "about": "“THIENOISOQUINOLINES AND THEIR DERIVATIVES FOR TARGETING TUBULIN, CH-TOG, AURORA A KINASE, TPX2, CDK5RAP2 AND/OR ASPM” (VALORBEC, SEC, priority 2017, published 2020)", "key": {"[1]": {"system": "HFF1 cells", "experiment": "Spindle morphology, fixed cells stained for tubulin and DAPI", "format": "cell-based", "settings": "300 nM", "description": "FIG. 1A) is a line graph showing changes in the percentage of viable HFF-1, HeLa, A549 and HCT 116 cells after treatment with a range of C75 concentrations for 3 population doubling times (N=3). […] There were more rounded mitotic cells after C75 treatment in comparison to the control. FIG. 1C) is a line graph showing the percentage of HeLa and HFF1 cells in mitosis after treatment with various concentrations of C75 for 8 hours. The bars indicate standard deviation. FIG. 1D) is a series of images showing cells that were fixed and co-stained for tubulin (microtubules) and DAPI (DNA). Treatment of HeLa cells with 300 nM C75 caused the mitotic spindles to be disorganized, while they were not affected in HFF1 cells. […] The scale bar for the cells is 10 μm. […] FIG. 1F) is a cartoon schematic showing the key features of a metaphase cell.\nThe images in FIG. 1B) show fields of view of HeLa cells treated with (dimethyl sulfoxide) DMSO or 500 nM of C75. […] Higher concentrations of C75 caused spindle phenotypes in HFF1 cells, but they were quite different in comparison to HeLa cells (FIG. 1D)."}, "[2]": {"system": "A549 cells", "experiment": "Viability IC50 of C75 in combination with subthreshold colchicine", "format": "cell-based, human", "settings": "+ 9 nM colchicine"}, "[3]": {"system": "HFF-1 cells", "experiment": "Spindle phenotypes, fixed cells stained for γ-tubulin and ACA", "format": "cell-based", "settings": "300 nM for 4 hours", "description": "(§1) For each condition, 20,000 cells were counted per replicate (N=3). Line graphs (right) were made to better illustrate the relative changes in the cell cycle phases for the different treatments. Bars show standard deviation. The asterisks indicate the first statistically significant change in the G0/G1 and G2/M populations determined by a two-way ANOVA with a post-hoc Tukey's multiple comparisons test using 95% confidence intervals. FIG. 2B) is a line graph showing the percentage of HCT116 (p53−/−) cells, A549 cells, HeLa cells and H1299 cells in mitosis after treatment with various concentrations of C75 for one population doubling time. All of the cell lines show an increase in the proportion of mitotic cells after treatment with 200 nM C75. The bars indicate standard deviation. […] While the mitotic spindles were not dramatically altered by C75 in HFF1 cells, they were monopolar (as shown) or fragmented in the other cell types. […] The mitotic spindles were more strongly fragmented after C75 treatment in these cells vs. the cells in FIG. 2C). FIG. 2E) are images showing fixed HFF1, HeLa, A549 and HCT 116 cells co-stained for γ-tubulin (spindle poles; white) and ACA (centromeres; light grey) 4 hours after treatment with 300 nM C87 (control) or 300 nM C75. Cartoon schematics show examples of the different spindle phenotypes, including bipolar with aligned chromosomes (top), bipolar with misaligned chromosomes (upper middle), multipolar/fragmented (lower middle), or monopolar (bottom), and the proportion of that phenotype is shown in the top right corner of each image. FIG. 2F) is a bar graph showing the proportion of the different spindle phenotypes for HFF1, HeLa, A549 and HCT 116 cells treated as in FIG. 2E) (n=1355; N=3). Bars show standard deviation. […] While mitotic spindles recovered bipolarity after removing nocodazole, they remained multipolar after removing C75. […] FIG. 2J) is a bar graph showing the proportion of cells with monopolar (black), bipolar (dark grey) or multipolar (light grey) spindles. Bars show standard deviation. FIG. 2K) is a series of time-lapse images of a live HeLa cell expressing GFP:tubulin after treatment with C75 as shown in 2G). […] Drugs were not washed out. […]\n(§2) C75 was also tested for efficacy in different cancer cell lines. […] To further assess the role of C75 in disrupting spindles, HeLa cells were treated with 300 nM C75 for 4 hours and the spindle phenotypes were analyzed in more detail (FIG. 2E). […] To assess the affect of C75 on centrosomes, HeLa cells were treated with C75 or nocodazole (a drug that causes microtubule depolymerization as a control) for a short period of time (5 minutes), then the drugs were removed and the cells were analyzed for spindle phenotypes (schematic in FIG. 2G). […]"}, "[4]": {"system": "HCT116 cells", "experiment": "Spindle phenotypes, fixed cells stained for γ-tubulin and ACA", "format": "cell-based", "settings": "300 nM for 4 hours", "description": "as §1, §2"}}}
{"smiles": "COc1ccc(S(=O)(=O)N2Cc3ccccc3-c3sc(Br)cc32)cc1", "note": "[Compound C75]", "values": [{"measurement": "mitotic spindle morphology", "setting": "[1]", "result": "not affected"}, {"measurement": "lowering of the IC50 of C75 by subthreshold colchicine", "setting": "[2]", "result": "~2", "unit": "fold"}, {"measurement": "cells with bipolar spindles with aligned chromosomes", "setting": "[3]", "result": 88, "unit": "%"}, {"measurement": "cells with bipolar spindles with misaligned chromosomes", "setting": "[4]", "result": 22, "unit": "%"}, {"measurement": "cells with monopolar spindles", "setting": "[4]", "result": 35, "unit": "%"}, {"measurement": "cells with multipolar or fragmented spindles", "setting": "[4]", "result": 13, "unit": "%"}]}
